Measured values taken from patent publication EP0598011B1, “ECDYSTEROID DEPENDENT REGULATION OF GENES IN MAMMALIAN CELLS” (GENENTECH, INC., priority 1991, dated 1993).

How the values were obtained:
drosophila cell lines = conditions: cited from earlier work
DHR23α = biological target: T1, DHR23α (Drosophila melanogaster, UniProt P34021); assay: DHR23α transactivation of EcRE (Ec4M-77CO) CAT reporter in transfected human 293 cells; assay type: cell-based; conditions: pRSV.DHR23α + pEc4M-77CO (EcRE) CAT reporter, ligand 1 µM, 48 hrs
T1 construct: To isolate the full-length DHR23α clones; expressed in transfected cells; host or cells: human 293 cells
T1 sequence (P34021 1-878): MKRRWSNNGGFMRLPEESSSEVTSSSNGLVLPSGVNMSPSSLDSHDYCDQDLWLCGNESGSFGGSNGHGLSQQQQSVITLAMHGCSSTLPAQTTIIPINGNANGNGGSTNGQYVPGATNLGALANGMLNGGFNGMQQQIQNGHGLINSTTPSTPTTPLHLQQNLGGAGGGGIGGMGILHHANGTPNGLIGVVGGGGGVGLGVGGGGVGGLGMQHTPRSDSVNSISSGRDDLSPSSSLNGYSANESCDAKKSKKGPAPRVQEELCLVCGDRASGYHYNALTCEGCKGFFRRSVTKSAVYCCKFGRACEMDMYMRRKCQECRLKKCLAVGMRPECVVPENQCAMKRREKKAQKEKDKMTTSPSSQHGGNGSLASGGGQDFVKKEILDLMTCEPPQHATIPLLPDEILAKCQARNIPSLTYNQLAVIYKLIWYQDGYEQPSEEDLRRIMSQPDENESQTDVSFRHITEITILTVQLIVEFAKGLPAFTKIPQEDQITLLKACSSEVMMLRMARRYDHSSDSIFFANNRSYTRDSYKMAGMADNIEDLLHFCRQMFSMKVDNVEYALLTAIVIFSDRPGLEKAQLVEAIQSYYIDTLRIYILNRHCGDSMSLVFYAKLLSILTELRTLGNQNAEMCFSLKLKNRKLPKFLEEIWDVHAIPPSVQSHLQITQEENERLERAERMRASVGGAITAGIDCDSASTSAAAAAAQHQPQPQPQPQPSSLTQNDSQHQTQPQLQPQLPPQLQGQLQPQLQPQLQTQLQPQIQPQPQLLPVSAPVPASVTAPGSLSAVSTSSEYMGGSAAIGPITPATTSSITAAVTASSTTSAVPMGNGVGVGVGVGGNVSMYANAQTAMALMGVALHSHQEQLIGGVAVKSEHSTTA
T1 sequence (P19793 1-462 partner): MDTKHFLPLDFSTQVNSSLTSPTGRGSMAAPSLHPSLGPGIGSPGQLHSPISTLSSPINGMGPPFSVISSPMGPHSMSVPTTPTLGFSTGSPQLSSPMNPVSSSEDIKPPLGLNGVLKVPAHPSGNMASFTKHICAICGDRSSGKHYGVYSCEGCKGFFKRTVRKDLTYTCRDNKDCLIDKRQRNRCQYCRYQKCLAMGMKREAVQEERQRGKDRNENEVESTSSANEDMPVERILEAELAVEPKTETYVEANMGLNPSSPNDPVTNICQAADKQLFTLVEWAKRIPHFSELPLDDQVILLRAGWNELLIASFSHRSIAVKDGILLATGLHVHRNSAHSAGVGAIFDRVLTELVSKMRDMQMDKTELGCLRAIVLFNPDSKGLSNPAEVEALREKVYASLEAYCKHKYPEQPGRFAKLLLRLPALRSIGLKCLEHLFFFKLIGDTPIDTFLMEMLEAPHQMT
Method: Figure. 2. […] Human 293 cells were cotransfected with 2.5 µg of the expression plasmid pRSV.DHR23α or the parental expression plasmid pRSV (Control) and 0.5 µgs of the reporter plasmid pEc4M-77CO (EcRE) or pG4M-77CO (GRE). As a control for transfection efficiency, 0.5 µgs of the control plasmid pRSV.hGH was included in the transfection mixture. After transfection, cells were treated without (-) or with alpha-ecdysone (alpha), 20-OH ecdysone (20-OH), polypodine B (ppB), ponasterone A (ponA) or muristeroine A (murA). CAT extracts were harvested 48 hrs after transfection and assayed. The values were normalized to the expression of hGH and the average values of three independent experiments are shown. The "fold induction" represents the level of expression of the reporter gene in cells incubated with hormone divided by the expression of that reporter gene in extracts from cells incubated in the absence of added ligand.
I determined whether DHR23α could function in mammalian cells treated with ecdysteroids to enhance the transcription of a reporter gene containing EcREs linked to the murine mammary tumor virus (MTV) promoter and chloramphenicol acetyltransferase (CAT) gene. Human 293 cells were cotransfected with an RSV-based expression vector that encodes DHR23a and the reporter gene Ec4M-77CO that contains 4 copies of an ecdysone response element (EcRE) from the Drosophila HSP27 promoter (G. Riddihough and H. R. B. Pelham, EMBO J. 6, 3729 [1987]) linked to an MTV promoter-CAT construct.
Human 293 cells were cotransfected with 2.5 µg of the expression plasmid pRSV.DHR23α or the parental expression plasmid pRSV (Control) and 0.5 µgs of the reporter plasmid pEc4M-77CO (EcRE) or pG4M-77CO (GRE). As a control for transfection efficiency, 0.5 µgs of the control plasmid pRSV.hGH was included in the transfection mixture. After transfection, cells were treated without (-) or with alpha-ecdysone (alpha), 20-OH ecdysone (20-OH), polypodine B (ppB), ponasterone A (ponA) or muristeroine A (murA). All candidate ligands were added at a concentration of 1 µM. CAT extracts were harvested 48 hrs after transfection, and assays were performed as described (D. R. Cavener, Nucl. Acids Res. 15, 1353-1361 [1987]). The values were normalized to the expression of hGH and the average values of three independent experiments are shown in Figure 2. The "fold induction" represents the level of expression of the reporter gene in cells incubated with hormone divided by the expression of that reporter gene in extracts from cells incubated in the absence of added ligand.
Cells were transfected with the DHR23α expression vector and Ec4M-77CO reporter gene and treated without (-) or with the following hormones (1 µM): muristerone A (mur A) dexamethasone (Dex) 17β-estradiol (E2), aldosterone (Aldo), corticosterone (Cort) hydroxycorticosterone (OH-Cort) thyroid hormone (T3), promegestone (Promeg) or 1,25-dihydroxy vitamin D3 (VD3). Reporter gene activity was determined as described above for Figure 2.

GGEc = biological target: T2, GGEc (Drosophila melanogaster, UniProt P34021); assay: Induction of GRE reporter G4M-77CO by chimeric receptor GGEc in 293 cells; assay type: cell-based; conditions: GRE reporter G4M-77CO
T2 construct: expressed in transfected cells; host or cells: 293 cells
T2 sequence (P34021 329-878): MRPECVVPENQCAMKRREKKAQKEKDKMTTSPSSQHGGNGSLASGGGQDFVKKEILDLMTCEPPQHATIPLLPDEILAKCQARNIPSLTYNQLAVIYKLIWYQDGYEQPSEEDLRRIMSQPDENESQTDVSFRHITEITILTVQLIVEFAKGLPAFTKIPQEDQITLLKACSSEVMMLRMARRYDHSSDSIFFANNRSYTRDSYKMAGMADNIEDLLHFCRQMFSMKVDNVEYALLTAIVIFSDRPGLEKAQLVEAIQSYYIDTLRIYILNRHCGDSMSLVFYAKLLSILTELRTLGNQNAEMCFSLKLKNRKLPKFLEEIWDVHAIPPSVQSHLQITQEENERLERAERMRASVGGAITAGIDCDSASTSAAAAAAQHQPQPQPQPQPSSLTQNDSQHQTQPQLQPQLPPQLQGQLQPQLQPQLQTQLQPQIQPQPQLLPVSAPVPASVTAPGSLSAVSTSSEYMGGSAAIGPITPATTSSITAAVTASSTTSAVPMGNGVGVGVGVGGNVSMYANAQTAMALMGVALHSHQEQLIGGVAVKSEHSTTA
Excerpt: I choose to determine if the ligand-binding domain of DHR23a could be used to regulate the DNA-binding and transactivation domains of the mammalian glucocorticoid receptor for the following reasons. First, in contrast to DHR23α, high affinity DNA-binding sites for the GR have been identified (M. Beato, Cell 56, 335 [1989]) and reporter genes containing these sites are very strongly regulated. Thus, the sensitivity of our assays could be increased. Secondly, these chimeric receptors could be utilized to selectively regulate endogenous genes in mammalian cells in response to ecdysteroids. I constructed a chimeric gene, GGEc, in which the sequences encoding the ligand-binding domain of the GR were replaced with that of DHR23α (Fig. 4A). […] However, expression of the GRE-containing reporter gene was induced more than 700 fold by GGEc in muristerone-treated cells.

GGG = biological target: T3, GGG (Rattus norvegicus, UniProt P06536); assay: Induction of GRE reporter G4M-77CO by GGG (glucocorticoid receptor) in 293 cells; conditions: normalized to hGH, SD in parentheses, 2880 min
T3 sequence (P06536 1-795): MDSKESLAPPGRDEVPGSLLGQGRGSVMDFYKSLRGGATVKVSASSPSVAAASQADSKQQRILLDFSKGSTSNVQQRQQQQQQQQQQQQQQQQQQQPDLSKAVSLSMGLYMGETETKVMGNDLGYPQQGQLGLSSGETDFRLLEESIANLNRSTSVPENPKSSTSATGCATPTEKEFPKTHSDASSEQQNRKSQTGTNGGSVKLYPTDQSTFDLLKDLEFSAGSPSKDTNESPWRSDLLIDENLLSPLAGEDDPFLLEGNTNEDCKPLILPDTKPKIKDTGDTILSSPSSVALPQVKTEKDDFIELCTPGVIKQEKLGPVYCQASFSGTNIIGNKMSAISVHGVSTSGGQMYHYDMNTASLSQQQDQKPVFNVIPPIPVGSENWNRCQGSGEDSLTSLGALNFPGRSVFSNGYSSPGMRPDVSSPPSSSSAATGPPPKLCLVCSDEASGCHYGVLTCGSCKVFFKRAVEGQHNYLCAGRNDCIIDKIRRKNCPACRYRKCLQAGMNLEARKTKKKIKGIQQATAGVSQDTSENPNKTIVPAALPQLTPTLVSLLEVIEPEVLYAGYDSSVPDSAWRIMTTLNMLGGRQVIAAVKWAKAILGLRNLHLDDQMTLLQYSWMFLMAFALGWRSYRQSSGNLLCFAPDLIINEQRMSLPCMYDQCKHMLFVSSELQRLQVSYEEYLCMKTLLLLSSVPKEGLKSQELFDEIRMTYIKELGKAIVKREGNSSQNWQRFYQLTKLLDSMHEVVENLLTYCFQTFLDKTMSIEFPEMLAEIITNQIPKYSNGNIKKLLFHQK

agonist for DHR23α in mammalian cells (expression of the reporter gene) (DHR23α; 1 µM) | Structure (SMILES) | agonist activity in drosophila cell lines (drosophila cell lines) | agonist for DHR23α in mammalian cells (expression of the reporter gene) (DHR23α) | relative efficacies of ecdysteroids as agonists for the chimeric receptor (GGEc) | fold induction (GGG) [fold]
inactive | CC(C)(O)CC[C@@H](O)[C@](C)(O)[C@H]1CC[C@@]2(O)C3=CC(=O)[C@@H]4C[C@@H](O)[C@@H](O)C[C@]4(C)[C@H]3CC[C@]12C [20-OH ecdysone] | agonists | Neither α-ecdysone, 20-OH ecdysone, nor polypodine B acted as agonists | neither α-ecdysone, 20-OH ecdysone or polypodine B acted as agonists | 
 | C[C@@H]1C[C@H]2[C@@H]3CCC4=CC(=O)C=C[C@]4(C)[C@@]3(F)[C@@H](O)C[C@]2(C)[C@@]1(O)C(=O)CO [dexamethasone] |  |  |  | 347
 | CC(C)(O)CC[C@@H](O)[C@](C)(O)[C@H]1CC[C@@]2(O)C3=CC(=O)[C@]4(O)C[C@@H](O)[C@@H](O)C[C@]4(C)[C@H]3CC[C@]12C [polypodine B] | agonists | Neither α-ecdysone, 20-OH ecdysone, nor polypodine B acted as agonists | neither α-ecdysone, 20-OH ecdysone or polypodine B acted as agonists | 
 | CC(C)CC[C@@H](O)[C@](C)(O)[C@H]1CC[C@@]2(O)C3=CC(=O)[C@@H]4C[C@@H](O)[C@@H](O)C[C@]4(C)[C@H]3CC[C@]12C [ponasterone A] |  | weak agonist | weak | 
 | C[C@H]([C@H](O)CCC(C)(C)O)[C@H]1CC[C@@]2(O)C3=CC(=O)[C@@H]4C[C@@H](O)[C@@H](O)C[C@]4(C)[C@H]3CC[C@]12C [α-ecdysone] |  | Neither α-ecdysone, 20-OH ecdysone, nor polypodine B acted as agonists | neither α-ecdysone, 20-OH ecdysone or polypodine B acted as agonists | 
